This is an account of results in patent publication US20250243488A1, “METHODS OF MODULATING PROGRANULIN EXPRESSION USING ANTISENSE OLIGONUCLEOTIDES TARGETING REGULATORY RNAS” (Camp4 Therapeutics Corporation, priority 2022, published 2025).

Oligonucleotides are written 5' to 3', each unit as a sugar letter and its base; * is a phosphorothioate linkage, no mark a phosphodiester; rarer units and linkages stand in square brackets, end groups in braces. Plain capitals give the bases only. e = 2'-O-(2-methoxyethyl) (MOE); [5mC] = 5-methylcytosine

One series concerns mGrn mRNA. As to the kind of experiment: mGrn mRNA qPCR in Neuro2a cells transfected with ASOs. The format is cell-based, mouse. The conditions noted are these: Neuro2a, dose-dependent, normalized to sNTC3 (FIG. 13). As to the method:
57 ASOs targeting the Grn promoter (− strand) were screened in Neuro2a cells. Neuro2a cells were transfected with 100 nM of each of the ASOs listed in Table 14 and cells were harvested 48 hours later for Grn mRNA quantification using qPCR. Housekeeping genes for normalization were Gapdh and Ppia. Relative Grn mRNA levels were normalized to mRNA extracted from cells treated with sNTC3 (steric nontargeting control).
Next, 26 ASOs based on parent ASOs CO-3544 and CO-3595 were designed with different modifications and base walking. Neuro2a cells were transfected with either […] or 160 nM of each of the ASOs listed in Table 15, and cells were harvested 48 hours later for mGrn mRNA quantification using qPCR. As controls, cells were treated with sNTC3 or no ASO. Housekeeping genes for normalization were Gapdh and Ppia. Relative Grn mRNA levels were normalized to mRNA extracted from cells treated with sNTC3.
CO-3544 was modified to include PO/PS bonds and the efficacy in upregulating mGrn mRNA was determined.
Similarly, CO-3595 was modified to include varying PO/PS internucleotide bonds and the efficacy of these ASOs in upregulating mGrn mRNA was determined in Neuro2A cells.
On to “CO-3595: ASO targeting the Grn promoter (− strand) (antisense e[5mC]*e[5mC]*eT*eG*eA*eA*e[5mC]*eT*eG*eT*eA*eT*eG*eG*e[5mC]*eT*eG*eA*e[5mC]*e[5mC])”, for which the “mGrn mRNA upregulation” value is listed as not above 1.8 fold.

The series is the same for the next values; noted with them: Table 14; Neuro2a, 100 nM, 48 hours; normalized to sNTC3.
On to “CO-3565: ASO targeting the Grn promoter (− strand) (antisense eG*eA*eG*e[5mC]*eT*eG*eA*e[5mC]*e[5mC]*eG*e[5mC]*e[5mC]*eA*eG*eA*eT*eG*e[5mC]*e[5mC]*eT)”, for which the “mGRN mRNA FC” value came to 1.6 FC.
In the case of “CO-3566: ASO targeting the Grn promoter (− strand) (antisense eG*e[5mC]*eT*eA*eA*eT*eG*eG*eA*eA*eA*eT*eT*eG*eA*eG*eG*eT*eG*eG)”, the “mGRN mRNA FC” value is listed as 1.1 FC.
On the same count and under the same terms, the same measure for “CO-3567: ASO targeting the Grn promoter (− strand) (antisense e[5mC]*e[5mC]*e[5mC]*eT*eG*eG*eA*eT*e[5mC]*eT*e[5mC]*e[5mC]*eG*eA*eG*e[5mC]*eA*eA*eT*eG)”: 1.1 FC; for “CO-3568: ASO targeting the Grn promoter (− strand) (antisense e[5mC]*e[5mC]*eG*e[5mC]*e[5mC]*eT*e[5mC]*eT*eA*e[5mC]*eG*eT*eA*eG*eA*e[5mC]*eA*eA*eG*eT)”: 1.2 FC.
Still for that read-out and setting: for “CO-3569: ASO targeting the Grn promoter (− strand) (antisense eG*eG*eA*eA*eT*eG*eT*eG*eA*eA*e[5mC]*eT*eG*eA*eG*eT*eA*eG*eA*eA)” the value was 1.2 FC; for “CO-3570: ASO targeting the Grn promoter (− strand) (antisense e[5mC]*eT*eA*eA*eT*e[5mC]*eA*e[5mC]*eA*eT*eG*eA*eT*e[5mC]*e[5mC]*e[5mC]*eT*eA*eG*eA)”, 1.2 FC; for “CO-3571: ASO targeting the Grn promoter (− strand) (antisense eG*e[5mC]*eT*eA*eT*eG*eT*eT*eG*eT*e[5mC]*eA*eT*eA*eT*eG*eA*eT*eT*e[5mC])”, 1.4 FC.
Still for that read-out and setting: for “CO-3572: ASO targeting the Grn promoter (− strand) (antisense eG*e[5mC]*e[5mC]*eG*e[5mC]*e[5mC]*eA*eG*eA*eA*e[5mC]*e[5mC]*e[5mC]*eA*eA*eA*e[5mC]*e[5mC]*eA*eG)” the value was 1.3 FC.
As for “CO-3573: ASO targeting the Grn promoter (− strand) (antisense eG*eT*e[5mC]*eT*e[5mC]*eA*eT*e[5mC]*eT*e[5mC]*eT*eG*e[5mC]*eA*eA*e[5mC]*eA*e[5mC]*eT*e[5mC])”, the “mGRN mRNA FC” value was determined as 1.4 FC.
The same measure, in the same setting: for “CO-3574: ASO targeting the Grn promoter (− strand) (antisense eG*e[5mC]*eT*e[5mC]*eT*e[5mC]*e[5mC]*eT*eA*eA*e[5mC]*eT*eG*eT*eG*eG*eG*eT*eG*e[5mC])” the value was 1.3 FC; for “CO-3575: ASO targeting the Grn promoter (− strand) (antisense eG*eT*eA*eA*eA*e[5mC]*eG*eA*e[5mC]*e[5mC]*eT*eT*eG*eA*eA*e[5mC]*eG*e[5mC]*eG*eT)”, 1.2 FC; for “CO-3576: ASO targeting the Grn promoter (− strand) (antisense eA*eT*eG*eT*eA*e[5mC]*eA*eA*eA*eA*eG*eT*e[5mC]*e[5mC]*e[5mC]*eG*eA*eT*e[5mC]*e[5mC])”, 1.2 FC.
Still for that read-out and setting: the same measure for “CO-3577: ASO targeting the Grn promoter (− strand) (antisense e[5mC]*eT*eG*e[5mC]*e[5mC]*eA*eG*eG*e[5mC]*eG*eT*eG*eA*eA*eG*eA*eG*eA*e[5mC]*eA)”: 1.1 FC.
As to “CO-3578: ASO targeting the Grn promoter (− strand) (antisense eT*eT*e[5mC]*e[5mC]*eA*eA*e[5mC]*eT*eG*eG*eT*eT*eT*e[5mC]*eG*eA*eG*eT*e[5mC]*e[5mC])”, the “mGRN mRNA FC” value came to 1.0 FC.
Still for that read-out and setting: the same measure for “CO-3579: ASO targeting the Grn promoter (− strand) (antisense eG*eA*e[5mC]*eT*eA*eT*eT*eT*eA*eT*e[5mC]*eT*eT*e[5mC]*eA*e[5mC]*e[5mC]*e[5mC]*eT*e[5mC])”: 1.2 FC; for “CO-3580: ASO targeting the Grn promoter (− strand) (antisense eG*e[5mC]*e[5mC]*eA*e[5mC]*eT*e[5mC]*eT*e[5mC]*e[5mC]*e[5mC]*e[5mC]*eA*eT*eT*e[5mC]*eA*eA*eA*e[5mC])”: 1.2 FC.
Still for that read-out and setting: the same measure for “CO-3581: ASO targeting the Grn promoter (− strand) (antisense e[5mC]*eG*e[5mC]*e[5mC]*e[5mC]*eT*eT*eG*eA*eA*e[5mC]*e[5mC]*eT*eT*eT*eA*eT*eT*eA*eG)”: 1.1 FC; for “CO-3582: ASO targeting the Grn promoter (− strand) (antisense e[5mC]*eA*e[5mC]*eA*eT*e[5mC]*eT*eA*e[5mC]*eA*eG*eT*eG*e[5mC]*e[5mC]*e[5mC]*eG*eG*eT*eA)”: 1.1 FC.
On the same count and under the same terms, the same measure for “CO-3583: ASO targeting the Grn promoter (− strand) (antisense eT*e[5mC]*e[5mC]*e[5mC]*e[5mC]*e[5mC]*e[5mC]*eA*eG*eT*eT*eT*eG*eA*eG*e[5mC]*e[5mC]*eA*eA*eT)”: 1.2 FC; for “CO-3584: ASO targeting the Grn promoter (− strand) (antisense eG*e[5mC]*eT*eT*e[5mC]*eA*eA*eT*eT*eT*eA*eA*eT*eG*e[5mC]*eA*eG*eT*eG*e[5mC])”: 1.1 FC; for “CO-3585: ASO targeting the Grn promoter (− strand) (antisense eG*eT*e[5mC]*e[5mC]*e[5mC]*eA*e[5mC]*e[5mC]*eT*eT*eA*eT*e[5mC]*eA*eG*e[5mC]*e[5mC]*eT*e[5mC]*eT)”: 1.7 FC.
For the substance “CO-3586: ASO targeting the Grn promoter (− strand) (antisense eA*eA*eT*e[5mC]*eT*eA*eG*eT*eT*eT*e[5mC]*eA*eA*eG*eT*eT*e[5mC]*e[5mC]*eT*e[5mC])”, the “mGRN mRNA FC” value came out at 1.4 FC.
On the same count and under the same terms, the same measure for “CO-3587: ASO targeting the Grn promoter (− strand) (antisense eT*eA*e[5mC]*e[5mC]*e[5mC]*eA*eA*eG*eG*eA*eA*eA*eG*eG*eA*eT*eT*e[5mC]*eA*e[5mC])”: 1.9 FC.
Still for that read-out and setting: the same measure for “CO-3588: ASO targeting the Grn promoter (− strand) (antisense eG*eT*e[5mC]*eT*eG*eT*eA*eA*eA*eG*eA*eA*e[5mC]*eA*eA*eG*eA*eT*eA*eT)”: 0.9 FC.
The same measure, in the same setting: for “CO-3589: ASO targeting the Grn promoter (− strand) (antisense eT*eT*eT*e[5mC]*eA*eA*e[5mC]*e[5mC]*e[5mC]*eT*eT*eG*e[5mC]*eT*eA*eG*eA*eG*eG*e[5mC])” the value was 1.3 FC; for “CO-3590: ASO targeting the Grn promoter (− strand) (antisense eT*eA*eA*eT*eG*e[5mC]*e[5mC]*e[5mC]*eT*eT*eA*eT*e[5mC]*eT*eT*eG*eA*eA*e[5mC]*eG)”, 1.2 FC.
“CO-3591: ASO targeting the Grn promoter (− strand) (antisense e[5mC]*e[5mC]*eA*e[5mC]*e[5mC]*eA*eG*e[5mC]*e[5mC]*eT*eA*e[5mC]*eT*e[5mC]*e[5mC]*eA*e[5mC]*eA*eG*eG)”: the “mGRN mRNA FC” value is given as 1.4 FC.
On the same count and under the same terms, for “CO-3592: ASO targeting the Grn promoter (− strand) (antisense eG*eA*eA*eA*e[5mC]*e[5mC]*e[5mC]*e[5mC]*eT*eT*e[5mC]*e[5mC]*eA*eT*e[5mC]*eT*e[5mC]*eG*eA*e[5mC])” the value was 1.2 FC.
For “CO-3593: ASO targeting the Grn promoter (− strand) (antisense e[5mC]*eA*eT*eA*eA*e[5mC]*eA*eA*eT*eT*e[5mC]*e[5mC]*eT*e[5mC]*eG*eA*eA*eG*eG*eT)”, the “mGRN mRNA FC” value was 1.1 FC.
The same measure, in the same setting: for “CO-3594: ASO targeting the Grn promoter (− strand) (antisense e[5mC]*eA*eT*eG*eG*eT*e[5mC]*eT*e[5mC]*eT*eA*eT*eT*e[5mC]*eA*e[5mC]*e[5mC]*e[5mC]*eA*e[5mC])” the value was 1.6 FC; for “CO-3595: ASO targeting the Grn promoter (− strand) (antisense e[5mC]*e[5mC]*eT*eG*eA*eA*e[5mC]*eT*eG*eT*eA*eT*eG*eG*e[5mC]*eT*eG*eA*e[5mC]*e[5mC])”, 2.3 FC; for “CO-3596: ASO targeting the Grn promoter (− strand) (antisense e[5mC]*eT*e[5mC]*eT*eA*eT*eG*eT*eA*eA*eG*eA*e[5mC]*eT*e[5mC]*e[5mC]*e[5mC]*eA*e[5mC]*eT)”, 1.4 FC.
Same read-out and setting: the same measure for “CO-3597: ASO targeting the Grn promoter (− strand) (antisense eA*e[5mC]*eA*eA*e[5mC]*e[5mC]*e[5mC]*eT*eG*e[5mC]*eA*eT*eG*e[5mC]*eA*e[5mC]*eT*e[5mC]*e[5mC]*eT)”: 1.2 FC; for “CO-3598: ASO targeting the Grn promoter (− strand) (antisense eT*eA*eA*eG*eA*eA*eG*e[5mC]*e[5mC]*e[5mC]*eT*e[5mC]*eA*e[5mC]*eG*eG*eA*eA*eT*eT)”: 1.3 FC.

The series is the same for the next values; noted with them: Table 16; Neuro2A, 40 nM, transfection.
On to “CO-3595: ASO targeting the Grn promoter (− strand) (antisense e[5mC]*e[5mC]*eT*eG*eA*eA*e[5mC]*eT*eG*eT*eA*eT*eG*eG*e[5mC]*eT*eG*eA*e[5mC]*e[5mC])”, for which the “40 nM FC (mGrn mRNA)” value stood at 1.2 FC.

The same series, now with this note: Table 16; Neuro2A, 80 nM, transfection.
“CO-3595: ASO targeting the Grn promoter (− strand) (antisense e[5mC]*e[5mC]*eT*eG*eA*eA*e[5mC]*eT*eG*eT*eA*eT*eG*eG*e[5mC]*eT*eG*eA*e[5mC]*e[5mC])”: the “80 nM FC (mGrn mRNA)” value is given as 1.3 FC.

Staying with this series, now noted: Table 16; Neuro2A, 160 nM, transfection.
On to “CO-3595: ASO targeting the Grn promoter (− strand) (antisense e[5mC]*e[5mC]*eT*eG*eA*eA*e[5mC]*eT*eG*eT*eA*eT*eG*eG*e[5mC]*eT*eG*eA*e[5mC]*e[5mC])”, for which the “160 nM FC (mGrn mRNA)” value came out at 1.4 FC.
